Data on 13 molecules can be found in PubChem BioAssay AID212 (DTP/NCI, 2004).

This experiment has as its system BDF1 mice, colon carcinoma 38 sc, T/C %. Kind of experiment: NCI In Vivo Anticancer Drug Screen. Data for tumor model Colon Carcinoma 38 (subcutaneous) in B6D2F1 (BDF1) mice. The following applies: endpoint: median tumor weight (est.), higher = larger tumour. The procedure:
The antitumor activity of compounds was measured in mice bearing transplantable tumors. Survival or tumor size were measured and the results are expressed as the measurement made in the treated group (T) divided by the measurement made in the vehicle treated control group (C). The tumor model used in this assay is Colon Carcinoma 38 (subcutaneous) in B6D2F1 (BDF1) mice

Setting [1] is: dose: 100.0 mg/kg/injection, schedule: Q07DX002 (ip), vehicle: saline.
Setting [2] is: dose: 200.0 mg/kg/injection, schedule: Q07DX002 (ip), vehicle: saline with Tween-80.

Where “and” joins values, the source holds several entries; their conditions need not be identical. Equal values may be shown once. Inconclusive results are not listed.

Take `COC1CC(CC2CCC(C)C(C(C)C(=O)O)O2)OC2(OC(C)(C3CCC(C)(C4OC(C5OC(O)(CO)C(C)CC5C)CC4C)O3)CC2C)C1C` (stereo not given): the T/C by setting is: (dose: 0.3 mg/kg/injection, schedule: Q07DX002 (ip), vehicle: Klucel (hydroxypropylcellulose) (HPC)) 61 % of control; (dose: 0.31 mg/kg/injection, schedule: Q07DX002 (ip), vehicle: Klucel (hydroxypropylcellulose) (HPC)) 42 % of control; (dose: 1.25 mg/kg/injection, schedule: Q07DX002 (ip), vehicle: Klucel (hydroxypropylcellulose) (HPC)) 74 % of control and 82 % of control; (dose: 2.5 mg/kg/injection, schedule: Q07DX002 (ip), vehicle: Klucel (hydroxypropylcellulose) (HPC)) 58 % of control and 70 % of control; (dose: 5.0 mg/kg/injection, schedule: Q07DX002 (ip), vehicle: Klucel (hydroxypropylcellulose) (HPC)) 46 % of control and 55 % of control; (dose: 10.0 mg/kg/injection, schedule: Q07DX002 (ip), vehicle: Klucel (hydroxypropylcellulose) (HPC)) 52 % of control.

As for `O=c1n[n+]([O-])ccn1C1OC(CO)C(O)C1O` (stereo not given), the T/C was 160 % of control under setting [1]; 117 % of control (dose: 200.0 mg/kg/injection, schedule: Q07DX002 (ip), vehicle: saline); 73 % of control (dose: 600.0 mg/kg/injection, schedule: Q07DX002 (ip), vehicle: saline).

Consider `Nc1nc(-c2ccccc2)c(Br)c(=O)[nH]1`, for which the T/C by setting is: under setting [2], 105 % of control; (dose: 1600.0 mg/kg/injection, schedule: Q07DX002 (ip), vehicle: saline with Tween-80) 36 % of control and 43 % of control.

As for `O=C1C=C2C(=CCOC2O)O1` (stereo not given), the T/C is 91 % of control (dose: 0.75 mg/kg/injection, schedule: Q07DX002 (ip), vehicle: saline); 98 % of control (dose: 1.0 mg/kg/injection, schedule: Q07DX002 (ip), vehicle: water); 72 % of control (dose: 1.5 mg/kg/injection, schedule: Q07DX002 (ip), vehicle: saline); 90 % of control (dose: 2.0 mg/kg/injection, schedule: Q07DX002 (ip), vehicle: water); 117 % of control (dose: 4.0 mg/kg/injection, schedule: Q07DX002 (ip), vehicle: water).

In the case of `Nc1n[n+](-c2ccccc2)no1`, the T/C (dose: 3.12 mg/kg/injection, schedule: Q07DX002 (ip), vehicle: water) is 99 % of control and 108 % of control; the T/C (dose: 6.25 mg/kg/injection, schedule: Q07DX002 (ip), vehicle: water) was 85 % of control and 86 % of control and 98 % of control; the T/C (dose: 50.0 mg/kg/injection, schedule: Q07DX002 (ip), vehicle: water) was 70 % of control and 74 % of control and 94 % of control.

Regarding `OC(CCl)CN1CC[N+]2(CC1)CC[N+]1(CCN(CC(O)CCl)CC1)CC2` (stereo not given), the T/C is, setting by setting: (dose: 12.5 mg/kg/injection, schedule: Q07DX002 (ip), vehicle: saline) 73 % of control; (dose: 12.5 mg/kg/injection, schedule: Q07DX003 (ip), vehicle: saline) 90 % of control; (dose: 25.0 mg/kg/injection, schedule: Q07DX002 (ip), vehicle: saline) 124 % of control; (dose: 25.0 mg/kg/injection, schedule: Q07DX003 (ip), vehicle: saline) 91 % of control; (dose: 50.0 mg/kg/injection, schedule: Q07DX002 (ip), vehicle: saline) 90 % of control and 99 % of control; (dose: 50.0 mg/kg/injection, schedule: Q07DX003 (ip), vehicle: saline) 76 % of control. Besides, the T/C is 60 % of control under setting [1]; 57 % of control (dose: 100.0 mg/kg/injection, schedule: Q07DX003 (ip), vehicle: saline); 54 % of control (dose: 200.0 mg/kg/injection, schedule: Q07DX003 (ip), vehicle: saline); 44 % of control (dose: 400.0 mg/kg/injection, schedule: Q07DX003 (ip), vehicle: saline); 30 % of control (dose: 800.0 mg/kg/injection, schedule: Q07DX002 (ip), vehicle: saline).

On to `CN1CCN(Cc2nc3cccc4c3c([n+]2[O-])-c2ccccc2-4)CC1`, for which the T/C (dose: 3.12 mg/kg/injection, schedule: Q07DX002 (ip), vehicle: saline with Tween-80) is 72 % of control; the T/C (dose: 6.25 mg/kg/injection, schedule: Q07DX002 (ip), vehicle: saline with Tween-80) was 58 % of control; the T/C (dose: 12.5 mg/kg/injection, schedule: Q07DX002 (ip), vehicle: saline with Tween-80) is 81 % of control and 98 % of control and 106 % of control; the T/C under setting [2] is 65 % of control and 75 % of control; the T/C (dose: 400.0 mg/kg/injection, schedule: Q07DX002 (ip), vehicle: saline with Tween-80) is 79 % of control.

For the molecule `COc1cc(NCc2ccc3nc(N)nc(N)c3c2C)cc(OC)c1OC` (tested in a mixture with another compound), the T/C runs as follows: (dose: 105.0 mg/kg/injection, schedule: Q07DX002 (ip), vehicle: water) 86 % of control; (dose: 157.0 mg/kg/injection, schedule: Q07DX002 (ip), vehicle: water) 100 % of control; (dose: 236.0 mg/kg/injection, schedule: Q07DX002 (ip), vehicle: water) 75 % of control.

`C/C=C/C=C/c1cc2cc3c(c(O)c2c(=O)[nH]1)C1(CC3)C(O)=c2c(=O)c3c(=O)cc(OC)c(=O)c=3c(=O)c2=C1O` (stereo not given): the T/C is 74 % of control and 97 % of control (dose: 0.06 mg/kg/injection, schedule: Q07DX002 (ip), vehicle: DMSO); 115 % of control and 91 % of control (dose: 0.12 mg/kg/injection, schedule: Q07DX002 (ip), vehicle: DMSO); 81 % of control (dose: 0.15 mg/kg/injection, schedule: Q07DX002 (ip), vehicle: DMSO); 57 % of control (dose: 0.25 mg/kg/injection, schedule: Q07DX002 (ip), vehicle: DMSO); 85 % of control (dose: 0.3 mg/kg/injection, schedule: Q07DX002 (ip), vehicle: DMSO); 79 % of control and 93 % of control (dose: 0.5 mg/kg/injection, schedule: Q07DX002 (ip), vehicle: DMSO). In addition, the T/C reads like this: (dose: 0.61 mg/kg/injection, schedule: Q07DX002 (ip), vehicle: DMSO) 87 % of control; (dose: 1.0 mg/kg/injection, schedule: Q07DX002 (ip), vehicle: DMSO) 114 % of control and 102 % of control; (dose: 1.22 mg/kg/injection, schedule: Q07DX002 (ip), vehicle: DMSO) 81 % of control; (dose: 2.0 mg/kg/injection, schedule: Q07DX002 (ip), vehicle: DMSO) 121 % of control.

`CN(C)C(=O)SC1=C(c2c(Cl)cccc2Cl)C(=O)c2ccccc21`: the T/C runs as follows: (dose: 50.0 mg/kg/injection, schedule: Q07DX002 (ip), vehicle: Klucel (hydroxypropylcellulose) (HPC)) 76 % of control; (dose: 100.0 mg/kg/injection, schedule: Q07DX002 (ip), vehicle: Klucel (hydroxypropylcellulose) (HPC)) 94 % of control; (dose: 200.0 mg/kg/injection, schedule: Q07DX002 (ip), vehicle: Klucel (hydroxypropylcellulose) (HPC)) 86 % of control; (dose: 400.0 mg/kg/injection, schedule: Q07DX002 (ip), vehicle: Klucel (hydroxypropylcellulose) (HPC)) 82 % of control; (dose: 800.0 mg/kg/injection, schedule: Q07DX002 (ip), vehicle: Klucel (hydroxypropylcellulose) (HPC)) 91 % of control.

On to `O=C(O)c1c2c(nc3ccccc13)Cc1ccccc1-2`, for which the T/C runs as follows: (dose: 12.5 mg/kg/injection, schedule: Q07DX002 (ip), vehicle: water) 121 % of control and 100 % of control; (dose: 100.0 mg/kg/injection, schedule: Q07DX002 (ip), vehicle: water) 99 % of control; (dose: 200.0 mg/kg/injection, schedule: Q07DX002 (ip), vehicle: water) 62 % of control.

As for `CS(=O)(=O)OCCCNCCCOS(C)(=O)=O`, the T/C (dose: 9.3 mg/kg/injection, schedule: Q07DX003 (ip), vehicle: saline) was 43 % of control; the T/C (dose: 18.75 mg/kg/injection, schedule: Q07DX003 (ip), vehicle: saline) was 73 % of control; the T/C (dose: 37.5 mg/kg/injection, schedule: Q07DX003 (ip), vehicle: saline) was 58 % of control; the T/C (dose: 75.0 mg/kg/injection, schedule: Q07DX003 (ip), vehicle: saline) is 36 % of control.

Regarding `CC[C@@]1(O)C(=O)OCc2c1cc1n(c2=O)Cc2cc3ccccc3nc2-1`, the T/C is 100 % of control (dose: 1.5 mg/kg/injection, schedule: Q07DX002 (ip), vehicle: saline with Tween-80); 92 % of control (dose: 3.0 mg/kg/injection, schedule: Q07DX002 (ip), vehicle: saline with Tween-80); 75 % of control (dose: 6.0 mg/kg/injection, schedule: Q07DX002 (ip), vehicle: saline with Tween-80); 90 % of control (dose: 12.0 mg/kg/injection, schedule: Q07DX002 (ip), vehicle: saline with Tween-80); 95 % of control (dose: 24.0 mg/kg/injection, schedule: Q07DX002 (ip), vehicle: saline with Tween-80).
